Assay results as given in patent US10017459B2, “β-substituted β-amino acids and analogs as chemotherapeutic agents and uses thereof” (Quadriga Biosciences, Inc., priority 2015, dated 2018).

Columns and labels:
PC3 = experiment: cells; assay type: cell-based; conditions: Homo sapiens, PC-3, read-out: IC50 (in vitro toxicity)
KMS11 = experiment: cells; assay type: cell-based; conditions: Homo sapiens, KMS-11, read-out: IC50 (in vitro toxicity)
MDA-MB-231 [1] = experiment: Triple negative breast cancer study, IV dosing; assay type: in vivo, mouse; conditions: IV once a week for 8 weeks
Procedure: The efficacy of compounds provided by the present disclosure was evaluated on a triple negative breast cancer xenograft model—MDA-MB-231. Human triple negative breast cancer cells were implanted into the flank of nude mice and the study was initiated after the volume of the tumors was 150 mm^3. The animals were IV dosed once a week for 8 weeks with either vehicle or 5 mg/kg of compound (5), or 20 mg/kg compound (7). The tumor volume, body weight, white blood cell count, and granulocyte count were determined during the study and 12 days after the final dose was administered.

L363 = experiment: cells; assay type: cell-based; conditions: Homo sapiens, L-363, read-out: IC50 (in vitro toxicity)
794 = experiment: cells; assay type: cell-based; conditions: read-out: IC50 (in vitro toxicity)
AMO1 = experiment: cells; assay type: cell-based; conditions: Homo sapiens, AMO1, read-out: IC50 (in vitro toxicity)
42MGBA = experiment: cells; assay type: cell-based; conditions: read-out: IC50 (in vitro toxicity)
MDA-MB-231 [2] = experiment: cells; assay type: cell-based; conditions: Homo sapiens, MDA-MB-231, read-out: IC50 (in vitro toxicity)
U266 = experiment: cells; assay type: cell-based; conditions: Homo sapiens, U-266, read-out: IC50 (in vitro toxicity)
[3] = system: Human prostate cancer PC3 cells; conditions: mouse, in vivo
Raji = experiment: cells; assay type: cell-based; conditions: Homo sapiens, read-out: IC50 (in vitro toxicity)
HS27A = experiment: cells; assay type: cell-based; conditions: HS-27A, read-out: IC50 (in vitro toxicity)
hLAT2 = molecular target: T1, hLAT2 (Homo sapiens, UniProt Q9UHI5); experiment: LAT2 uptake inhibition assay, radiolabeled competition uptake with [3H]-leucine; assay type: cell-based
T1 construct: expressed in transfected cells; host or cells: KB or LLCPK cells, tetracycline/doxycycline-inducible
T1 sequence (Q9UHI5 1-535): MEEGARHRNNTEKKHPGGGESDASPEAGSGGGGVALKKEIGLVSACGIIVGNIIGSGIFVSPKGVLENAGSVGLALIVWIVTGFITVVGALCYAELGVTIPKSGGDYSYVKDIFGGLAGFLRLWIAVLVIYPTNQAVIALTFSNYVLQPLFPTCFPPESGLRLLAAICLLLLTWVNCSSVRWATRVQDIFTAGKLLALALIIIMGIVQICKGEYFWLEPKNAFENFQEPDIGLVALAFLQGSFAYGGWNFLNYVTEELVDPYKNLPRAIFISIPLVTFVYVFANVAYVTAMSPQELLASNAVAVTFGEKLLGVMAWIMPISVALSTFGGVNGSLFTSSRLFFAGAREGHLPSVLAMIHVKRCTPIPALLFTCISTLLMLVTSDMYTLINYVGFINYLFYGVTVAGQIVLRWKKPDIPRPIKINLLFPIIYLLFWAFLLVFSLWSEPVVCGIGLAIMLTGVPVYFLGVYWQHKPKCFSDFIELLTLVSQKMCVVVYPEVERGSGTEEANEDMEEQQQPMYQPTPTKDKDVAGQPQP
T1 sequence (P08195 1-630 isoform P08195-1 partner): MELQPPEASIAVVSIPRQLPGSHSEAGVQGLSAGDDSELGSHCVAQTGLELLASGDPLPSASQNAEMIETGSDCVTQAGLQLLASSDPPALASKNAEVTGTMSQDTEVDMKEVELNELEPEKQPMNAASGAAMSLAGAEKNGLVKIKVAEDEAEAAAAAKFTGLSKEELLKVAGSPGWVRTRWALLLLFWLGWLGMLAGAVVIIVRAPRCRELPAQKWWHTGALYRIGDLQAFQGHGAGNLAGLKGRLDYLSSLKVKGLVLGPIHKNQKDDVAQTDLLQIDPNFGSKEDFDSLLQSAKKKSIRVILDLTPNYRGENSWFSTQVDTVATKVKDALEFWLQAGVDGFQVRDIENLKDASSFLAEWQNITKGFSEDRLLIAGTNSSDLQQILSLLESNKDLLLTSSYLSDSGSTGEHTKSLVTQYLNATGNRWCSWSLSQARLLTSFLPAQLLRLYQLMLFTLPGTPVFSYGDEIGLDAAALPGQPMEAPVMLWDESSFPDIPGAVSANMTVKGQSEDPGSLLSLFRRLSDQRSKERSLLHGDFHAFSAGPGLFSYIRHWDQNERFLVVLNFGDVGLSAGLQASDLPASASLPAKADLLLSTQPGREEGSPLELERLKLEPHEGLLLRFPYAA

MV411 = experiment: cells; assay type: cell-based; conditions: Homo sapiens, MV4-11, read-out: IC50 (in vitro toxicity)
RPMI8266 = experiment: cells; assay type: cell-based; conditions: RPMI8266, read-out: IC50 (in vitro toxicity)
LN229 = experiment: cells; assay type: cell-based; conditions: Homo sapiens, LN-229, read-out: IC50 (in vitro toxicity)
HS5 = experiment: cells; assay type: cell-based; conditions: HS5, read-out: IC50 (in vitro toxicity)
D283 = experiment: cells; assay type: cell-based; conditions: D283, read-out: IC50 (in vitro toxicity)
U251 = experiment: cells; assay type: cell-based; conditions: Homo sapiens, U-251, read-out: IC50 (in vitro toxicity)
G55 = experiment: cells; assay type: cell-based; conditions: read-out: IC50 (in vitro toxicity)
KMS34 = experiment: cells; assay type: cell-based; conditions: KMS-34, read-out: IC50 (in vitro toxicity)
[4] = system: LLCPK cells conditionally expressing hLAT1; experiment: cells; conditions: 0.5 h, read-out: LC50, concentration of test compound at which the percent surviving cells was 50%
hLAT1 = molecular target: T2, hLAT1 (Homo sapiens, UniProt Q01650); experiment: LAT1 uptake inhibition assay, radiolabeled competition uptake with [3H]-Gabapentin; assay type: cell-based
T2 construct: expressed in transfected cells; host or cells: LLCPK cells, tetracycline/doxycycline-inducible, boosted with sodium butyrate

MM1.S = experiment: cells; assay type: cell-based; conditions: Homo sapiens, read-out: IC50 (in vitro toxicity)
DBRTG = experiment: cells; assay type: cell-based; conditions: read-out: IC50 (in vitro toxicity)
MCF7 = experiment: In vitro cytotoxicity, MCF7; assay type: cell-based; conditions: Homo sapiens, MCF7, read-out: IC50 (in vitro toxicity)
HCT116 = experiment: In vitro cytotoxicity, HCT116; assay type: cell-based; conditions: Homo sapiens, HCT-116, read-out: IC50 (in vitro toxicity)
[5] = system: human bone marrow cells (erythroid and myeloid progenitors); experiment: In vitro bone marrow toxicity, colony forming cell assays; conditions: 14 days in culture, methylcellulose media
B16 melanoma cells = experiment: In vivo tumor growth suppression, B16 efficacy model; parameters: species or system mouse; conditions: C57BL/6 mice, IP daily for 12 days; test compound 5 mg/kg and 10 mg/kg, melphalan 2.5 mg/kg
[6] = system: LLCPK cells conditionally expressing hLAT1

T2 sequence (Q01650 whole entry, one chain of several): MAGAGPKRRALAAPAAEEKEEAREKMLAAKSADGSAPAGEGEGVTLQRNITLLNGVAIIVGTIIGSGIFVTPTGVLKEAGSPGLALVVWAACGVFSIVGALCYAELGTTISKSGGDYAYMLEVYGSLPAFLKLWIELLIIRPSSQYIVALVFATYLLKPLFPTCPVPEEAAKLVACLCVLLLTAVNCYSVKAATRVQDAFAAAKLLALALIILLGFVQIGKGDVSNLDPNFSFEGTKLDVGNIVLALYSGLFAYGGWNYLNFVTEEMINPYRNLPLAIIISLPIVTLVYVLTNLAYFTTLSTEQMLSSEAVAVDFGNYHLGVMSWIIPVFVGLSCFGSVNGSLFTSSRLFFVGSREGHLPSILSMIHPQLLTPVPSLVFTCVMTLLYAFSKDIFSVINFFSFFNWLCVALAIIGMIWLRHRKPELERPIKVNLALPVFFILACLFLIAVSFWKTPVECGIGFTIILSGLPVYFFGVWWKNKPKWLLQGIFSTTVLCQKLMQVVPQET

Row | SMILES | IC50 (PC3) [µM] | IC50 (KMS11) [µM] | IC50 (L363) [µM] | IC50 794 [µM] | IC50 (AMO1) [µM] | IC50 (42MGBA) [µM] | IC50 (MDA-MB-231 [2]) [µM] | IC50 (U266) [µM] | body weight [3] | myelosuppression [3] | tumor growth suppression [3] | IC50 (Raji) [µM] | IC50 (HS27A) [µM] | IC50 (hLAT2) [µM] | IC50 (MV411) [µM] | IC50 (RPMI8266) [µM] | IC50 (LN229) [µM] | IC50 (HS5) [µM] | IC50 (D283) [µM] | IC50 (U251) [µM] | further results
1 | COc1ccc(N(CCCl)CCCl)cc1C[C@H](N)CC(=O)O [Compound 7, (3S)-3-Amino-4-[5-[bis(2-chloroethyl)amino]-2-methoxy-phenyl]butanoic Acid] | < 100 | > 100 | > 100 | < 100 | > 100 | < 100 | < 100 | < 100 | maintained weight | not dectected | dose-dependent tumor growth suppression | < 100 | > 100 | < 100 | < 100 | > 100 | < 100 | > 100 | < 100 | < 100 | body weight (MDA-MB-231 [1]): maintained weight; myelosuppression (MDA-MB-231 [1]): not dectected; tumor growth suppression (MDA-MB-231 [1]; nude mice, 5 mg/kg compound (5), 20 mg/kg compound (7)): dose-dependent tumor growth suppression; IC50 (G55): < 100 µM; IC50 (KMS34): > 100 µM; CC50 [4]: < 1 µM; IC50 (hLAT1): < 100 µM; IC50 (MM1.S): < 100 µM; IC50 (DBRTG): < 100 µM
2 | COc1ccc(N(CCCl)CCCl)c(C[C@H](N)CC(=O)O)c1 [Compound 51, (3S)-3-amino-4-[2-[bis(2-chloroethyl)amino]-5-methoxy-phenyl]butanoic acid] | < 100 | > 100 | < 100 | < 100 | > 100 | < 100 | < 100 | < 100 | maintained weight | not dectected | dose-dependent tumor growth suppression | < 100 | > 100 | < 100 | < 100 | > 100 | < 100 | > 100 | < 100 | < 100 | IC50 (MCF7): < 100 µM; IC50 (HCT116): < 100 µM; IC50 (G55): < 100 µM; IC50 (KMS34): < 100 µM; CC50 [4]: < 1 µM; IC50 (MM1.S): < 100 µM; IC50 (DBRTG): < 100 µM
3 | N[C@@H](Cc1ccc(N(CCCl)CCCl)cc1)C(=O)O [melphalan, reference compound] | – | – | – | – | – | – | – | – | – | – | – | – | – | – | – | – | – | – | – | – | toxicity to bone marrow progenitor cells (BFU-E, CFU-GM, Total CFC) [5]: more toxic to bone marrow progenitor cells than compound (5); Tumor Growth (% Control), 5 days post-dosing (B16 melanoma cells): 56 % Control; Tumor Growth (% Control), End of dosing (B16 melanoma cells): 33 % Control; percent surviving cells in cells expressing LAT1 versus cells not expressing LAT1 (in words) [6]: about the same
